Source: patent US12178892B2, “Compounds for positron emission tomography” (Endocyte, Inc., priority 2013, dated 2024)

Key:
FR [1] = biological target: T1, FR (Homo sapiens, UniProt P15328); assay: Binding to FR in Cal51 xenograft tumor crude homogenate (concentration dependent binding, Scatchard analysis); details: Cal51 xenografts
T1 construct: to FR in KB and Cal51 tumor crude homogenate; from tissue; host or cells: KB and Cal51 tumour xenograft crude homogenates
Description: (§1) EXAMPLE. The specificity of the radionuclide containing conjugates binding to FR is evaluated against KB xenografts homogenates and Cal51 xenografts homogenates. […] Scatchard analyses were also performed. […] Without being bound by theory, it is believed herein that the moderate expression of FR in Cal51 xenografts accounts for the lower binding affinity. Binding affinities of ^18F-AIF-QC07017 (2) to FR in KB and Cal51 tumor crude homogenate.

FR [2] = biological target: T1, FR; assay: Binding to FR in KB xenograft tumor crude homogenate (concentration dependent binding, Scatchard analysis); details: for non-specific binding: KB homogenates; for binding sites and affinity (Scatchard analyses): all cell xenografts
Description: as §1

PSMA = biological target: T2, PSMA (Homo sapiens, UniProt Q04609); assay: In vitro study in PSMA(−) and PSMA(+) cell lines, Kd; format: cell-based; details: PSMA(−) cell line (PC3) and PSMA(+) cell lines (LnCaP and PIP—PC3); ^67Ga as surrogate of ^68Ga
T2 construct: LnCap is a PSMA (+) cell line; and PIP—PC3 is a transfect cell line with higher PSMA expression; endogenous in cells; host or cells: LnCaP (endogenous) and PIP-PC3 (PSMA-transfected PC3); PC3 as the PSMA(-) control
T2 sequence (Q04609 whole entry): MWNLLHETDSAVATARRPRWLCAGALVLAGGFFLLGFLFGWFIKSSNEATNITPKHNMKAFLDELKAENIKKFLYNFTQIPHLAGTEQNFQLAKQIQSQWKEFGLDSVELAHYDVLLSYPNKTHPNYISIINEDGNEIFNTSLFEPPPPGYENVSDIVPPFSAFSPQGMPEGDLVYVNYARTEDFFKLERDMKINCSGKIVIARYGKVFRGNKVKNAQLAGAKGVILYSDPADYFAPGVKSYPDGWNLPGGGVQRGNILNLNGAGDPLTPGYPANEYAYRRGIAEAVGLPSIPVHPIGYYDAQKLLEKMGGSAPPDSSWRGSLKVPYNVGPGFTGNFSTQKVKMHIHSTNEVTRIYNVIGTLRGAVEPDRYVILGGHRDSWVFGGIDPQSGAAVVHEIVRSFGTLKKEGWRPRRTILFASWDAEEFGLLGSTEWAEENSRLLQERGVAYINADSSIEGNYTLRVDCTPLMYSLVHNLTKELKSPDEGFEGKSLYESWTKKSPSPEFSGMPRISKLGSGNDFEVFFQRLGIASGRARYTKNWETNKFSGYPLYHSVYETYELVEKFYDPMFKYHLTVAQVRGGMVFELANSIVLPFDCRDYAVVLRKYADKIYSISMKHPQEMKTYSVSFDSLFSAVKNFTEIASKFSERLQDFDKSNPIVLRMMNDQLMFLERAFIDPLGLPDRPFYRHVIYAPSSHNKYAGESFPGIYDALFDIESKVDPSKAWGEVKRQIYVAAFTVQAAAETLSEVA
Description: (§2) EXAMPLE. In vitro evaluation of DUPA-EAOA-Phe-Phe-NOTA-^68Ga radiotracer (^68Ga-QC08009). ^67Ga has a longer half life than ^68Ga (about 3.3 days versus about 68 minutes, respectively). Thus, ^67Ga is used as a surrogate of ^68Ga for in vitro evaluation of Kd values and tissue imaging. It is to be understood that the in vitro evaluation of Kd values and tissue imaging observed for ^67Ga is predictive of ^68Ga. DUPA-EAOA-Phe-Phe-NOTA-^67Ga (67Ga-NOTA-LC-PSMA2) was prepared in nearly quantitative radiochemical yield. […] PC3 is a PSMA (−) cell line; LnCap is a PSMA (+) cell line; and PIP—PC3 is a transfect cell line with higher PSMA expression.

[3] = tested on: PSMA(+) prostate cancer tissues; assay: Binding to PSMA(+) prostate cancer tissues (tissue imaging); details: compared to ^67Ga-DKFZ-PSMA11
Description: as §2

PIP—PC3 cells = assay: In vitro uptake by PIP—PC3 cells; format: cell-based
Description: as §2

in vivo = assay: in vivo; set-up: species or system mice; details: mouse, total radioactivity
From the text: (§3) EXAMPLE. In vivo PET imaging and BioD study of DUPA-EAOA-Phe-Phe-NOTA-^68Ga radiotracer (^68Ga-QC08009). […] Without being bound by theory, it is believed herein that the data support that the primary elimination pathway is in urine.

[4] = tested on: PSMA (+) LnCaP xenografts; assay: in vivo; set-up: species or system mice; details: mouse
From the text: as §3

PC3 cells = assay: In vitro uptake by PC3 cells; format: cell-based; details: PC3, PSMA (−) cell line
Description: as §2

LnCaP cells = assay: In vitro uptake by LnCaP cells; format: cell-based
Description: as §2

A549 tumor xenografts = assay: Ex vivo (postmortem) biodistribution, A549 tumor xenografts; set-up: species or system nude mice; details: mouse
From the text: It is to be understood that the vertical axis has been expanded and that the kidney data is truncated. […] It is to be understood that the vertical axis has been expanded and that the kidney data is truncated. […] EXAMPLE. […] Without being bound by theory, it is believed herein that the highest accumulation of radioactivity in kidneys, along with the relative low uptake of radiotracer in the hepatobiliary system i.e. liver, bile and intestine/feces supports that renal elimination is the predominant excretion pathway.

FR [5] = assay: Binding in A549 xenograft homogenates; details: A549 xenografts
KB tumor xenografts [6] = assay: Ex vivo (postmortem) biodistribution, KB tumor xenografts; format: in vivo, nude mice; details: for FR specificity: in both KB xenograft tumor tissues and A549 xenograft tumor tissues; for radiotracer level in kidneys: mouse, in vivo
From the text: EXAMPLE. […] Without being bound by theory, it is believed herein that the highest accumulation of radioactivity in kidneys, along with the relative low uptake of radiotracer in the hepatobiliary system i.e. liver, bile and intestine/feces supports that renal elimination is the predominant excretion pathway.

KB tumor xenografts [7] = assay: μPET imaging under baseline and competed conditions in nude mice bearing KB tumor xenografts; format: in vivo; details: competed group, 100 μg of folic acid 10 min before i.v. injection
Description: EXAMPLE. μPET imaging was performed on nude mice bearing KB tumor xenografts under baseline and competed conditions to evaluate the in vivo binding specificity of ^18F-AIF-QC07017 (2) to FR. Nude mice bearing KB tumor xenografts on their left shoulder were injected with 0.30-0.40 mCi (2). […] Without being bound by theory, it is believed herein that the high radioactivity found in kidneys was due to the uptake mediated by FR that is expressed in the proximal tubule cells in kidneys and the potential accumulation of radiotracer via renal excretion, which was further supported by the biodistribution studies described herein. With the exception of the liver, significant uptake in other organs was not observed.

[8] = KB xenografts, tumor crude homogenate

T1 sequence (P15328 25-234): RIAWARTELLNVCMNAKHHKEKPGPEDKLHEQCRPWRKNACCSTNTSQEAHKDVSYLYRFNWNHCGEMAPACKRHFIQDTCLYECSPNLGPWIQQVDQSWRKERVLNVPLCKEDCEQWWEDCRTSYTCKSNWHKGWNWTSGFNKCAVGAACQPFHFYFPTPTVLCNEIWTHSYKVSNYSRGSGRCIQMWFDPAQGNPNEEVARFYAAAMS

binding affinity (in words) (FR [1])	Bmax (FR [1]; tumor crude homogenate)	binding affinity (in words) (FR [2]; KB xenografts)	Bmax (FR [2]; [8])	binding sites and affinity (Scatchard analyses) (FR [2])	Structure (SMILES)	non-specific binding (FR [2])	accumulation in A549 xenograft tumor tissues (A549 tumor xenografts)	binding affinity (in words) (FR [5])	FR specificity (KB tumor xenografts [6])	radiotracer level in kidneys (KB tumor xenografts [6])	other results
Moderate binding affinity	13 nM	high specific binding affinity	241 nM	bound one site with high affinity	Nc1nc2ncc(CNc3ccc(C(=O)N[C@@H](CCC(=O)NCCOCCOCCOCCOCCOCCOCCOCCOCCOCCOCCOCCOCCC(=O)NCCNC(=O)CN4CCN(CC(=O)O)CCN(CC(=O)O)CC4)C(=O)O)cc3)nc2c(=O)[nH]1 [^18F-AIF-QC07043]	Significant non-specific binding was not observed					
					O=C(O)CCC(NC(=O)NC(CCC(=O)NCCCCCCCC(=O)N[C@@H](Cc1ccccc1)C(=O)N[C@@H](Cc1ccccc1)C(=O)NCCNC(=O)CN1CCN(CC(=O)O)CCN(CC(=O)O)CC1)C(=O)O)C(=O)O (single isomer, unassigned) [^67Ga-NOTA-LC-PSMA2, DUPA-EAOA-Phe-Phe-NOTA-^67Ga, metal not drawn]						Kd (PSMA): 8.45 ± 2.16 nM; binding to PSMA(+) prostate cancer tissues [3]: superior binding
					O=C(O)CCC(NC(=O)NC(CCC(=O)NCCCCCCCC(=O)N[C@@H](Cc1ccccc1)C(=O)N[C@@H](Cc1ccccc1)C(=O)NCCNC(=O)CN1CCN(CC(=O)O)CCN(CC(=O)O)CC1)C(=O)O)C(=O)O (single isomer, unassigned) [^68Ga-QC08009, DUPA-EAOA-Phe-Phe-NOTA-^68Ga, metal not drawn]						uptake by cells when competed (PIP—PC3 cells; PIP—PC3, competing ligand): blocked by competing ligand; uptake by cells (PIP—PC3 cells; PIP—PC3, transfect cell line with higher PSMA expression): substantial, with PIP—PC3 cells showing the highest uptake; tissue uptake dose (in vivo): 4.29 %ID; accumulation in kidneys [4]: minor accumulation; uptake by cells (PC3 cells): minimal; uptake by cells when competed (PC3 cells; competing ligand): did not change when competed; uptake by cells (LnCaP cells; PSMA (+) cell line): substantial; uptake by cells when competed (LnCaP cells; competing ligand): blocked by competing ligand
					Nc1nc2ncc(CNc3ccc(C(=O)N[C@@H](CCC(=O)NCCOCCOCCOCCOCCOCCOCCOCCOCCOCCOCCOCCOCCC(=O)NCCNC(=O)CN4CCN(CC(=O)O)CCN(CC(=O)O)CC4)C(=O)O)cc3)nc2c(=O)[nH]1 (Al18F complex, metal not drawn) [^18F-AIF-QC07043]		comparable to the liver	lowest binding affinity	comparable to etarfolatide (EC20)	highest signal	
Moderate binding affinity	36 nM	high specific binding affinity	511 nM	bound one site with high affinity	Nc1nc2ncc(CNc3ccc(C(=O)N[C@@H](CCC(=O)NCCOCCOCCNC(=O)CN4CCN(CC(=O)O)CCN(CC(=O)O)CC4)C(=O)O)cc3)nc2c(=O)[nH]1 [^18F-AIF-QC07017]	Significant non-specific binding was not observed	comparable to the liver	lowest binding affinity	comparable to etarfolatide (EC20)	highest signal	Kd (FR [1]; tumor crude homogenate): 1.1 nM; Kd (FR [2]; [8]): 0.7 nM; binding by self competition (FR [2]; human tumor xenografts (KB and Cal51)): Displaceable and saturable binding; tumor uptake under competition with folic acid (KB tumor xenografts [7]): completely inhibited
